Patent US11767305B2, “Advantageous benzofuran compositions for mental disorders or enhancement” (Tactogen Inc, priority 2020, dated 2023)
Counter-ions that a name gives are not always drawn. Like-named read-outs stand apart in the source and are kept apart here.

What was measured:
[1] = target: human 5-HT transporter (hSERT) (Homo sapiens (Human), UniProt P31645); experiment: Human serotonin transporter  assay ([3H]imipramine radioligand, CHO cells); assay type: binding; details: for IC50: 2 nM [3H]imipramine; for Ki: Cheng Prusoff equation
Procedure: Benzofuran derivatives were evaluated for inhibiting the human 5-HT transporter (hSERT) as expressed in CHO cells using an antagonist radioligand assay (Tatsumi, M. et al. (1999), Eur. J Pharmacol., 368: 277-283). […] Test compounds were assayed in three trials at […], and 0.94868 μM.

[2] = target: T1, serotonin (5-HT) transporter (SERT) (Rattus norvegicus (Rat), UniProt P31652); experiment: Rat synaptosome SERT [3H]5-HT uptake inhibition assay; details: 5 nM [3H]5-HT
[3] = target: T1, serotonin (5-HT) transporter (SERT); experiment: Rat synaptosome SERT [3H]5-HT release assay; details: 5 nM [3H]5-HT
5-HT1BR = 5-HT1BR (Homo sapiens (Human), UniProt P28222); experiment: 5-HT1BR cAMP secondary messenger agonist assay (HitHunter, CHO-K1); assay type: cell-based
Excerpt: The 5-HT1BR cAMP secondary messenger agonist assay used a panel of CHO-K1 cell lines stably expressing non-tagged GPCRs that endogenously signal through cAMP. Hit Hunter® cAMP assays monitored the activation of a GPCR via Gi and Gs secondary messenger signaling in a homogenous, non-imaging assay format using DiscoverX Enzyme Fragment Complementation (EFC) with β-galactosidase as the functional endpoint.
The enzyme was split into two complementary portions: Enzyme Acceptor (EA) and Enzyme Donor (ED). Exogenously introduced ED fused to cAMP (ED-cAMP) competed with endogenously generated cAMP for binding to an anti-cAMP-specific antibody. Active β-galactosidase was formed by complementation of exogenous EA to any unbound ED-cAMP.
Cell lines were expanded from freezer stocks according to standard procedures. Cells were seeded in a total volume of 20 μL into white walled, 384-well microplates and incubated at 37° C. for the appropriate time prior to testing. cAMP modulation was determined using the DiscoverX HitHunter cAMP XS+ assay.
For agonist determination, cells were incubated with sample (in the presence of EC80 forskolin to induce response if measuring Gi secondary messenger signaling). Media was aspirated from cells and replaced with 15 μL 2:1 HBSS/10 mM Hepes:cAMP XS+ Ab reagent. Intermediate dilution of sample stocks was performed to generate 4×sample in assay buffer (optionally containing 4×EC80 forskolin). 5 μL of 4×sample was added to cells and incubated at 37° C. or room temperature for 30 or 60 minutes, as appropriate. Final assay vehicle concentration was 1%.

SERT = SERT (Homo sapiens (Human), UniProt P31645); experiment: hSERT release assay in CHO cells ([3H]serotonin); details: EC50 SERT (Mean ± SEM, nM), CHO cells expressing hSERT
DAT = DAT (Homo sapiens (Human), UniProt Q01959); experiment: hDAT release assay in CHO cells ([3H]dopamine); details: EC50 DAT (Mean ± SEM, nM), CHO cells expressing hDAT
healthy human individual = experiment: Human effects of non-racemic 5-MAPB, self-reported ratings (Good, Bad, Open); assay type: in vivo; details: averaged from all sessions, 54 mg 5-MAPB HCl oral in two halves
Procedure: The effects of non-racemic 5-MAPB HCl were tested by a healthy human individual at four different ratios of enantiomers plus the racemate as a control: • 54 mg S and 0 mg R (100% S) • 47 mg Sand 7 mg R (87% S) • 36 mg S and 18 mg R (67% S) • 27 mg S and 27 mg R (50% S) • 7 mg S and 47 mg R (13% S)
Two trials were carried out at each ratio, except for 13% S where only one was conducted. Trials were at least 72 h apart.
5-MAPB HCl was dissolved in 1.5 ml distilled water and consumed in two halves, separated by 1 hour. Starting at 3 hours after administration, tablets of 250 mg ascorbic acid and capsules of 300 mg alpha lipoic acid were taken ad libitum (approximately every hour for a total of 4 administrations).
Measurements were made approximately every 2 hours until post 6 hours and the maximum ratings per session were analyzed. Additionally, an index of good drug effects versus emotional openness, calculated as (Open−Good)/(200, the theoretical maximum of Open+Good), was constructed at each time point and the maximum analyzed. In healthy volunteers, Good Ratings can be considered a predictor of abuse liability. Accordingly, this index can be used as an indicator of the balance of a therapeutic effect (emotional openness) vs abuse liability.
Historic data of two trials 50 mg RS-5-MAPB Cl from the same individual were also included in the analysis for comparison.

[4] = Salt screening experiments (PXRD result); assay type: physicochemical; details: S-5-MAPB Pure Enantiomer (Pattern 1A Enantiomer) + counterion 1:1 molar ratio, 40° C.
MAO-A = MAO-A (Homo sapiens (Human), UniProt P21397); experiment: MAO-A inhibition assay (kynuramine); assay type: biochemical
Procedure: MAO-A and test compounds were preincubated at 37° C. for 15 minutes before substrate addition. Test compounds were assayed at 10 concentrations with the highest concentration either 30 or 10 μM and subsequent concentrations using a 0.33 dilution factor. The reaction was initiated by addition of kynuramine and incubated at 37° C. for 30 minutes. The reaction was terminated by addition of NaOH. The amount of 4-hydroquioline formed was determined through spectrofluorimetric readout with the emission detection at 380 nm and excitation wavelength 310 nm.

[5] = read-out: Inhibition of [3H]5-HT Uptake at SERT IC50
[6] = read-out: [3H]5-HT release via SERT EC50
[7] = Inhibition of [3H]5-HT Uptake at SERT IC50 (nM)
[8] = [3H]5-HT release via SERT EC50 (nM)

Sequence of MAO-A (P21397 whole entry, looked up, species assumed): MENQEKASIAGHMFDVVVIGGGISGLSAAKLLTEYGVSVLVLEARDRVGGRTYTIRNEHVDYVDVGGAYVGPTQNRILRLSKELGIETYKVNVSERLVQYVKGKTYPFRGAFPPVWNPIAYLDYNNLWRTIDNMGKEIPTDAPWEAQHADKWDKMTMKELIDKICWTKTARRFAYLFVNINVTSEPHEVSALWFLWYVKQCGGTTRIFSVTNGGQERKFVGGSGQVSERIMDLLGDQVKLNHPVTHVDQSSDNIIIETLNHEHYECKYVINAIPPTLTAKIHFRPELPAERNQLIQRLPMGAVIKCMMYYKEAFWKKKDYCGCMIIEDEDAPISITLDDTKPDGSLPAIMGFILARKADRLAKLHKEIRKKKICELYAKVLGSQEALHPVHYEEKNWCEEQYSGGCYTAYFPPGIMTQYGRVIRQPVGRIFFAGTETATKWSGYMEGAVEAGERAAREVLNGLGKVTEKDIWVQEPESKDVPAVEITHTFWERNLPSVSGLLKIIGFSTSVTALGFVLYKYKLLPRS

1-(benzofuran-6-yl)-N-methylbutan-2-amine [Compound R-6-MBPB]
IC50 ([1]; read-out: SERT IC50): 5.7 µM
Ki ([1]; read-out: SERT Ki): 2.6 µM
IC50 [2, 5]: 702 ± 262 nM
EC50 [3, 6]: 172 ± 82.2 nM

1-(benzofuran-6-yl)-N-methylbutan-2-amine [Compound S-6-MBPB]
IC50 ([1]; read-out: SERT IC50): 2.7 µM
Ki ([1]; read-out: SERT Ki): 1.2 µM
IC50 [2, 5]: 217 ± 45.8 nM
EC50 [3, 6]: 54.1 ± 33.9 nM

CNC(C)C(=O)c1ccc2occc2c1 (racemic) [rac-BK-5-MAPB, 1-(benzofuran-5-yl)-2-(methylamino)propan-1-one hydrochloride]
Hill Coef. (5-HT1BR): 0.91
EC50 (5-HT1BR; 5-HT1BR EC50 (μM)): 0.14 µM

CCC(NC)C(=O)c1ccc2occc2c1 (racemic) [rac-BK-5-MBPB, 1-(benzofuran-5-yl)-2-(methylamino)butan-1-one hydrochloride]
Hill Coef. (5-HT1BR): 1.01
EC50 (5-HT1BR; 5-HT1BR EC50 (μM)): 19.6 µM

CNC(C)C(=O)c1ccc2ccoc2c1 (racemic) [rac-BK-6-MAPB, 1-(benzofuran-6-yl)-2-(methylamino)propan-1-one hydrochloride]
Hill Coef. (5-HT1BR): 0.99
EC50 (5-HT1BR; 5-HT1BR EC50 (μM)): 0.537 µM

CCC(NC)C(=O)c1ccc2ccoc2c1 (racemic) [rac-BK-6-MBPB, 1-(benzofuran-6-yl)-2-(methylamino)butan-1-one hydrochloride]
EC50 (5-HT1BR; 5-HT1BR EC50 (μM)): > 30 µM

CNC(C)C(=O)c1ccc2occc2c1 (single isomer, unassigned) [Enantiomer 1 BK-5-MAPB, 1-(benzofuran-5-yl)-2-(methylamino) propan-1-one]
EC50 (5-HT1BR; 5HT1B Agonist (μM)): 0.08 µM

CNC(C)C(=O)c1ccc2occc2c1 (single isomer, unassigned) [Enantiomer 2 BK-5-MAPB, 1-(benzofuran-5-yl)-2-(methylamino) propan-1-one]
EC50 (5-HT1BR; 5HT1B Agonist (μM)): 3.07 µM

CNC(C)C(=O)c1ccc2occc2c1 (single isomer, unassigned; (+)) [(+)-BK-5-MAPB, 1-(benzofuran-5-yl)-2-(methylamino) propan-1-one]
IC50 ([1]; SERT IC50 (μM)): 38 µM
Ki ([1]; SERT Ki (μM)): 17 µM
IC50 [2, 7]: 2090 ± 151 nM
EC50 [3, 8]: 439 ± 72.5 nM
Hill Coef. (5-HT1BR): 1.05
EC50 (5-HT1BR; 5-HT1BR EC50 (μM)): 3.07 µM

CCC(NC)C(=O)c1ccc2occc2c1 (single isomer, unassigned; (+)) [(+)-BK-5-MBPB, 1-(benzofuran-5-yl)-2-(methylamino) butan-1-one]
IC50 ([1]; SERT IC50 (μM)): 6.5 µM
Ki ([1]; SERT Ki (μM)): 3 µM
EC50 (5-HT1BR; 5-HT1BR EC50 (μM)): > 30 µM

CNC(C)C(=O)c1ccc2ccoc2c1 (single isomer, unassigned; (+)) [(+)-BK-6-MAPB, 1-(benzofuran-6-yl)-2-(methylamino) propan-1-one]
IC50 [2, 7]: 5470 ± 424 nM
EC50 [3, 8]: 1280 ± 268 nM
EC50 (5-HT1BR; 5-HT1BR EC50 (μM)): > 10 µM

CCC(NC)C(=O)c1ccc2ccoc2c1 (single isomer, unassigned; (+)) [(+)-BK-6-MBPB, 1-(benzofuran-6-yl)-2-(methylamino)butan-1-one]
IC50 ([1]; SERT IC50 (μM)): 29 µM
Ki ([1]; SERT Ki (μM)): 13 µM
EC50 (5-HT1BR; 5-HT1BR EC50 (μM)): > 30 µM

CNC(C)C(=O)c1ccc2occc2c1 (single isomer, unassigned; (-)) [(−)-BK-5-MAPB, 1-(benzofuran-5-yl)-2-(methylamino) propan-1-one]
IC50 ([1]; SERT IC50 (μM)): 6.9 µM
Ki ([1]; SERT Ki (μM)): 3.2 µM
IC50 [2, 7]: 284 ± 11.9 nM
EC50 [3, 8]: 80 ± 13.7 nM
Hill Coef. (5-HT1BR): 1.5
EC50 (5-HT1BR; 5-HT1BR EC50 (μM)): 0.0777 µM

CCC(NC)C(=O)c1ccc2occc2c1 (single isomer, unassigned; (-)) [(−)-BK-5-MBPB, 1-(benzofuran-5-yl)-2-(methylamino) butan-1-one]
IC50 ([1]; SERT IC50 (μM)): 1.6 µM
Ki ([1]; SERT Ki (μM)): 0.72 µM
Hill Coef. (5-HT1BR): 1.6241
EC50 (5-HT1BR; 5-HT1BR EC50 (μM)): 6.61 µM

CNC(C)C(=O)c1ccc2ccoc2c1 (single isomer, unassigned; (-)) [(−)-BK-6-MAPB, 1-(benzofuran-6-yl)-2-(methylamino) propan-1-one]
IC50 ([1]; SERT IC50 (μM)): 12 µM
Ki ([1]; SERT Ki (μM)): 5.4 µM
IC50 [2, 7]: 275 ± 13 nM
EC50 [3, 8]: 72.2 ± 16.6 nM
Hill Coef. (5-HT1BR): 0.8339
EC50 (5-HT1BR; 5-HT1BR EC50 (μM)): 0.288 µM

CCC(NC)C(=O)c1ccc2ccoc2c1 (single isomer, unassigned; (-)) [(−)-BK-6-MBPB, 1-(benzofuran-6-yl)-2-(methylamino)butan-1-one]
IC50 ([1]; SERT IC50 (μM)): 3.7 µM
Ki ([1]; SERT Ki (μM)): 1.7 µM
Hill Coef. (5-HT1BR): 1.9551
EC50 (5-HT1BR; 5-HT1BR EC50 (μM)): 7.52 µM

CN[C@H](C)Cc1ccc2occc2c1 [75% R-5-MAPB]
EC50 (SERT): 122 ± 13 nM
EC50 (DAT): 794 ± 182 nM

CN[C@@H](C)Cc1ccc2occc2c1 [100% S-5-MAPB]
Bad (healthy human individual; maximum 0-100 rating of bad drug effects): 1%
Open (healthy human individual; maximum 0-100 rating of emotional openness): 65%
Good (healthy human individual; maximum 0-100 rating of good drug effects): 55%

O=S(=O)(O)O [Compound H2SO4]
PXRD Result ([4]; solvent Acetone): N/A (gel)
PXRD Result ([4]; solvent EtOH:water 90:10): N/A (gel)
PXRD Result ([4]; solvent MeOH:water 90:10): N/A (gel)
PXRD Result ([4]; solvent THF): N/A (gel)

O=P(O)(O)O [Compound H3PO4]
PXRD Result ([4]; solvent MeOH:water 90:10): N/A (gel)

CN[C@@H](C)Cc1ccc2ccoc2c1 [Compound S-6-MAPB, (S)-1-(benzofuran-6-yl)-N-methylpropan-2-amine]
IC50 ([1]; SERT IC50 (μM)): 6.7 µM
IC50 [2, 7]: 90.9 ± 5.9 nM
IC50 (MAO-A): 5.39 µM
EC50 [3, 8]: 20.6 ± 2.7 nM
Hill Coef. (5-HT1BR): 1.21
EC50 (5-HT1BR; 5-HT1BR EC50 (μM)): 0.102 µM
EC50 (5-HT1BR; 5HT1B Agonist (μM)): 0.1 µM

O=[N+]([O-])O [HNO3]
PXRD Result ([4]; solvent Acetone): N/A (gel)
PXRD Result ([4]; solvent EtOH:water 90:10): N/A (gel)
PXRD Result ([4]; solvent MeOH:water 90:10): N/A (gel)
PXRD Result ([4]; solvent THF): N/A (gel)

N=C(N)NCCC[C@H](N)C(=O)O [L-Arginine]
PXRD Result ([4]; solvent Acetone): N/A (gel)
PXRD Result ([4]; solvent EtOH:water 90:10): N/A (gel)
PXRD Result ([4]; solvent MeOH:water 90:10): N/A (gel)
PXRD Result ([4]; solvent THF): N/A (gel)

NCCCC[C@H](N)C(=O)O [L-Lysine]
PXRD Result ([4]; solvent Acetone): N/A (gel)
PXRD Result ([4]; solvent EtOH:water 90:10): N/A (gel)
PXRD Result ([4]; solvent MeOH:water 90:10): N/A (gel)
PXRD Result ([4]; solvent THF): L-Lysine

O=C(O)/C=C\C(=O)O [Maleic]
PXRD Result ([4]; solvent Acetone): N/A (gel)
PXRD Result ([4]; solvent EtOH:water 90:10): N/A (gel)
PXRD Result ([4]; solvent MeOH:water 90:10): N/A (gel)
PXRD Result ([4]; solvent THF): N/A (gel)

CS(=O)(=O)O [Methane Sulfonic]
PXRD Result ([4]; solvent Acetone): N/A (gel)
PXRD Result ([4]; solvent EtOH:water 90:10): N/A (gel)
PXRD Result ([4]; solvent MeOH:water 90:10): N/A (gel)
PXRD Result ([4]; solvent THF): N/A (gel)

O=C(O)CCC(=O)O [Succinic]
PXRD Result ([4]; solvent Acetone): N/A (gel)
PXRD Result ([4]; solvent EtOH:water 90:10): N/A (gel)
PXRD Result ([4]; solvent MeOH:water 90:10): N/A (gel)
PXRD Result ([4]; solvent THF): N/A (gel)

Fumaric
PXRD Result ([4]; solvent Acetone): N/A (gel)
PXRD Result ([4]; solvent MeOH:water 90:10): N/A (gel)
PXRD Result ([4]; solvent THF): N/A (gel)
